Source: ChEMBL document CHEMBL6071211, “Invention of VH-937, a Potent HIV-1 Maturation Inhibitor with the Potential for Infrequent Oral Dosing in Humans” (ACS Med Chem Lett, 2024)

Legend:
[1] = test system: Human immunodeficiency virus 1; test: In vitro antiviral activity against fully replicating HIV1 NL4-3 harboring Gag T332S/V362I/prR41G mutant; format: functional, organism-based
[2] = test system: Human immunodeficiency virus 1; test: In vitro antiviral activity against fully replicating wild type HIV1 NL4-3; format: functional, organism-based
[3] = test system: Human immunodeficiency virus 1; test: In vitro antiviral activity against fully replicating wild type HIV1 NL4-3 in presence of human serum; format: functional, organism-based
[4] = test system: Human immunodeficiency virus 1; test: In vitro antiviral activity against fully replicating HIV1 NL4-3 harboring Gag A364V mutant; format: functional, organism-based
[5] = test system: Human immunodeficiency virus 1; test: Binding affinity to HIV1 Gag A364V mutant assessed as dissociation half life by virus-like particle (VLP) assay
[6] = Human immunodeficiency virus 1, NL4-3

| Structure (SMILES) | EC50 [1, 6] [nM] | EC50 [2, 6] [nM] | EC50 [3, 6] [nM] | EC50 [4, 6] [nM] | EC50 [2] [nM] | EC50 [3] [nM] | EC50 [4] [nM] | EC50 [1] [nM] | T1/2 [5] [min] |
| --- | --- | --- | --- | --- | --- | --- | --- | --- | --- |
| C=C(C)[C@@H]1CC[C@]2(NCCN3CCS(=O)(=O)CC3)CC[C@]3(C)[C@H](CC[C@@H]4[C@@]5(C)CC=C(C6=CCC(COc7nccs7)(C(=O)O)CC6)C(C)(C)[C@@H]5CC[C@]43C)[C@@H]12 (mixture of isomers) | 38.9 | 3.6 | 24.5 | 2.4 | – | – | – | – | – |
| C=C(C)[C@@H]1CC[C@]2(NCCN3CCS(=O)(=O)CC3)CC[C@]3(C)[C@H](CC[C@@H]4[C@@]5(C)CC=C(C6=CCC(COCc7ccccc7)(C(=O)O)CC6)C(C)(C)[C@@H]5CC[C@]43C)[C@@H]12 (mixture of isomers) | 22.1 | 7.8 | 98.2 | 49.8 | – | – | – | – | – |
| C=C(C)[C@@H]1CC[C@]2(NCCN3CCS(=O)(=O)CC3)CC[C@]3(C)[C@H](CC[C@@H]4[C@@]5(C)CC=C(C6=CCC(COc7nnnn7C)(C(=O)O)CC6)C(C)(C)[C@@H]5CC[C@]43C)[C@@H]12 (mixture of isomers) | 6.8 | 1.7 | 36 | 24.2 | – | – | – | – | – |
| C=C(C)[C@@H]1CC[C@]2(NCCN3CCS(=O)(=O)CC3)CC[C@]3(C)[C@H](CC[C@@H]4[C@@]5(C)CC=C(C6=CCC(COc7ccccn7)(C(=O)O)CC6)C(C)(C)[C@@H]5CC[C@]43C)[C@@H]12 (mixture of isomers) | 14.3 | 2.6 | 61 | 11.3 | – | – | – | – | – |
| C=C(C)[C@@H]1CC[C@]2(NCCN3CCS(=O)(=O)CC3)CC[C@]3(C)[C@H](CC[C@@H]4[C@@]5(C)CC=C(C6=CCC(COc7ncccn7)(C(=O)O)CC6)C(C)(C)[C@@H]5CC[C@]43C)[C@@H]12 (mixture of isomers) | 12.6 | 1.8 | 52.1 | 4.5 | – | – | – | – | – |
| C=C(C)[C@@H]1CC[C@]2(NCCN3CCS(=O)(=O)CC3)CC[C@]3(C)[C@H](CC[C@@H]4[C@@]5(C)CC=C(C6=CCC(COc7ccc(F)cc7)(C(=O)O)CC6)C(C)(C)[C@@H]5CC[C@]43C)[C@@H]12 (mixture of isomers) | 26.5 | 4.7 | 74.5 | 21.7 | – | – | – | – | – |
| C=C(C)[C@@H]1CC[C@]2(NCCN3CCS(=O)(=O)CC3)CC[C@]3(C)[C@H](CC[C@@H]4[C@@]5(C)CC=C(C6=CCC(COc7ccccc7)(C(=O)O)CC6)C(C)(C)[C@@H]5CC[C@]43C)[C@@H]12 (mixture of isomers) | 27.8 | 5 | 58.4 | 19.7 | – | – | – | – | – |
| C=C(C)[C@@H]1CC[C@]2(NCCN3CCS(=O)(=O)CC3)CC[C@]3(C)[C@H](CC[C@@H]4[C@@]5(C)CC=C(C6=CC[C@@](COc7cnccn7)(C(=O)O)CC6)C(C)(C)[C@@H]5CC[C@]43C)[C@@H]12 | 14.7 | 2.8 | 48.1 | 21.4 | – | – | – | – | – |
| C=C(C)[C@@H]1CC[C@]2(NCCN3CCS(=O)(=O)CC3)CC[C@]3(C)[C@H](CC[C@@H]4[C@@]5(C)CC=C(C6=CCC(COc7ccccc7Cl)(C(=O)O)CC6)C(C)(C)[C@@H]5CC[C@]43C)[C@@H]12 (mixture of isomers) | 23.1 | 9.7 | 59.7 | 20.1 | – | – | – | – | – |
| C=C(C)[C@@H]1CC[C@]2(NCCN3CCS(=O)(=O)CC3)CC[C@]3(C)[C@H](CC[C@@H]4[C@@]5(C)CC=C(C6=CCC(COc7ccc(Cl)cc7)(C(=O)O)CC6)C(C)(C)[C@@H]5CC[C@]43C)[C@@H]12 (stereo in doubt; 8) | 49.6 | – | – | – | 29.4 | 149 | 75.3 | – | – |
| C=C(C)[C@@H]1CC[C@]2(NCCN3CCS(=O)(=O)CC3)CC[C@]3(C)[C@H](CC[C@@H]4[C@@]5(C)CC=C(C6=CCC(COc7cccc(Cl)c7)(C(=O)O)CC6)C(C)(C)[C@@H]5CC[C@]43C)[C@@H]12 (mixture of isomers) | 49.2 | 10.7 | 22 | 16.8 | – | – | – | – | – |
| C=C(C)[C@@H]1CC[C@]2(NCCN3CCS(=O)(=O)CC3)CC[C@]3(C)[C@H](CC[C@@H]4[C@@]5(C)CC=C(C6=CC[C@](COc7ccccn7)(C(=O)O)CC6)C(C)(C)[C@@H]5CC[C@]43C)[C@@H]12 | 8.8 | 1.6 | 54.9 | 5.8 | – | – | – | – | – |
| C=C(C)[C@@H]1CC[C@]2(NCCN3CCS(=O)(=O)CC3)CC[C@]3(C)[C@H](CC[C@@H]4[C@@]5(C)CC=C(C6=CCC(COc7ccc(Cl)cc7)(C(=O)O)CC6)C(C)(C)[C@@H]5CC[C@]43C)[C@@H]12 (stereo in doubt; 9) | – | – | – | – | 3.2 | 9.9 | 244 | 85.3 | – |
| C=C(C)[C@@H]1CC[C@]2(NCCN3CCS(=O)(=O)CC3)CC[C@]3(C)[C@H](CC[C@@H]4[C@@]5(C)CC=C(C6=CCC(COc7cccnn7)(C(=O)O)CC6)C(C)(C)[C@@H]5CC[C@]43C)[C@@H]12 (mixture of isomers) | 47.2 | 2.6 | 59.8 | 3.5 | – | – | – | – | – |
| C=C(C)[C@@H]1CC[C@]2(NCCN3CCS(=O)(=O)CC3)CC[C@]3(C)[C@H](CC[C@@H]4[C@@]5(C)CC=C(C6=CCC(COc7cccc(C#N)n7)(C(=O)O)CC6)C(C)(C)[C@@H]5CC[C@]43C)[C@@H]12 (mixture of isomers) | 15.8 | 13.9 | 15.7 | 26.4 | – | – | – | – | – |
| C=C(C)[C@@H]1CC[C@]2(NCCN3CCS(=O)(=O)CC3)CC[C@]3(C)[C@H](CC[C@@H]4[C@@]5(C)CC=C(C6=CCC(COc7ccncn7)(C(=O)O)CC6)C(C)(C)[C@@H]5CC[C@]43C)[C@@H]12 (mixture of isomers) | 68.6 | 1.7 | 23.4 | 10 | – | – | – | – | – |
| C=C(C)[C@@H]1CC[C@]2(NCCN3CCS(=O)(=O)CC3)CC[C@]3(C)[C@H](CC[C@@H]4[C@@]5(C)CC=C(C6=CC[C@@](COc7ccccn7)(C(=O)O)CC6)C(C)(C)[C@@H]5CC[C@]43C)[C@@H]12 | 19.2 | 3.5 | 44.9 | 7.2 | – | – | – | – | – |
| C=C(C)[C@@H]1CC[C@]2(NCCN3CCS(=O)(=O)CC3)CC[C@]3(C)[C@H](CC[C@@H]4[C@@]5(C)CC=C(C6=CCC(COc7cc(C#N)ccn7)(C(=O)O)CC6)C(C)(C)[C@@H]5CC[C@]43C)[C@@H]12 (mixture of isomers) | 64.1 | 0.9 | 46.3 | 71.8 | – | – | – | – | – |
| C=C(C)[C@@H]1CC[C@]2(NCCN3CCS(=O)(=O)CC3)CC[C@]3(C)[C@H](CC[C@@H]4[C@@]5(C)CC=C(C6=CCC(COc7ccc(C#N)cn7)(C(=O)O)CC6)C(C)(C)[C@@H]5CC[C@]43C)[C@@H]12 (mixture of isomers) | 232 | 1.9 | 34.3 | 28.8 | – | – | – | – | – |
| C=C(C)[C@@H]1CC[C@]2(NCCN3CCS(=O)(=O)CC3)CC[C@]3(C)[C@H](CC[C@@H]4[C@@]5(C)CC=C(C6=CCC(COc7ccncc7)(C(=O)O)CC6)C(C)(C)[C@@H]5CC[C@]43C)[C@@H]12 (mixture of isomers) | 14.2 | 2.1 | 33.3 | 34.6 | – | – | – | – | – |
| C=C(C)[C@@H]1CC[C@]2(NCCN3CCS(=O)(=O)CC3)CC[C@]3(C)[C@H](CC[C@@H]4[C@@]5(C)CC=C(C6=CC[C@@](COc7ncccc7C#N)(C(=O)O)CC6)C(C)(C)[C@@H]5CC[C@]43C)[C@@H]12 [ZEGRUVIRIMAT] | 5.8 | 2.5 | 41.1 | 52.6 | – | – | – | – | – |
| C=C(C)[C@@H]1CC[C@]2(NCCN3CCS(=O)(=O)CC3)CC[C@]3(C)[C@H](CC[C@@H]4[C@@]5(C)CC=C(C6=CCC(COc7cccc(F)c7)(C(=O)O)CC6)C(C)(C)[C@@H]5CC[C@]43C)[C@@H]12 (mixture of isomers) | 34.3 | 8.3 | 14.8 | 55.7 | – | – | – | – | – |
| C=C(C)[C@@H]1CC[C@]2(NCCN3CCS(=O)(=O)CC3)CC[C@]3(C)[C@H](CC[C@@H]4[C@@]5(C)CC=C(C6=CC[C@@](CF)(C(=O)O)CC6)C(C)(C)[C@@H]5CC[C@]43C)[C@@H]12 [FIPRAVIRIMAT] | – | – | 13.9 | – | – | – | – | – | < 1 |
| C=C(C)[C@@H]1CC[C@]2(NCCN3CCS(=O)(=O)CC3)CC[C@]3(C)[C@H](CC[C@@H]4[C@@]5(C)CC=C(C6=CCC(COc7cccnc7)(C(=O)O)CC6)C(C)(C)[C@@H]5CC[C@]43C)[C@@H]12 (mixture of isomers) | 5.8 | 1.9 | 36.7 | 26.9 | – | – | – | – | – |
| C=C(C)[C@@H]1CC[C@]2(NCCN3CCS(=O)(=O)CC3)CC[C@]3(C)[C@H](CC[C@@H]4[C@@]5(C)CC=C(c6ccc(C(=O)O)cc6)C(C)(C)[C@@H]5CC[C@]43C)[C@@H]12 | – | – | – | – | – | – | – | – | < 1 |
| C=C(C)[C@@H]1CC[C@]2(NCCN3CCS(=O)(=O)CC3)CC[C@]3(C)[C@H](CC[C@@H]4[C@@]5(C)CC=C(C6=CCC(COc7ccccc7F)(C(=O)O)CC6)C(C)(C)[C@@H]5CC[C@]43C)[C@@H]12 (mixture of isomers) | 19.3 | 6.1 | 58.4 | 27.3 | – | – | – | – | – |
